Test results as given in patent US20150087641A1, “HETEROCYCLIC CGRP RECEPTOR ANTAGONISTS” (Merck Sharp & Dohme Corp., priority 2012, published 2015).

Molecular target: T1, recombinant human CL receptor/RAMP1 (Homo sapiens, UniProt O60894+Q16602)
T1 construct: expressed in transfected cells
Assay: Recombinant receptor functional assay (cAMP, HTRF)
Assay type: cell-based
Settings: HEK 293 cells expressing human CL receptor/RAMP1; antagonism of 1.2 nM human α-CGRP-stimulated cAMP
Experimental: RECOMBINANT RECEPTOR: Human CL receptor (Genbank accession number L76380) was subcloned into the expression vector pIREShyg2 (BD Biosciences Clontech) as a 5′NheI and 3′ PmeI fragment. Human RAMP1 (Genbank accession number AJ001014) was subcloned into the expression vector pIRESpuro2 (BD Biosciences Clontech) as a 5′NheI and 3′NotI fragment. HEK 293 cells (human embryonic kidney cells; ATCC #CRL-1573) were cultured in DMEM with 4.5 g/L glucose, 1 mM sodium pyruvate and 2 mM glutamine supplemented with 10% fetal bovine serum (FBS), 100 units/mL penicillin and 100 μg/mL streptomycin, and maintained at 37° C. and 95% humidity. Cells were subcultured by treatment with 0.25% trypsin with 0.1% EDTA in HBSS. Stable cell line generation was accomplished by co-transfecting 10 μg of DNA with 30 μg Lipofectamine 2000 (Invitrogen) in 75 cm^2 flasks. CL receptor and RAMP1 expression constructs were co-transfected in equal amounts. […]
RECOMBINANT RECEPTOR FUNCTIONAL ASSAY: Cells were resuspended in DMEM/F12 (Hyclone) supplemented with 1 g/L BSA and 300 μM isobutyl-methylxanthine. […] Raw data were transformed into concentration of cAMP using a standard curve then dose response curves were plotted and inflection point (IP) values were determined.

T1 sequence (Q16602 23-461): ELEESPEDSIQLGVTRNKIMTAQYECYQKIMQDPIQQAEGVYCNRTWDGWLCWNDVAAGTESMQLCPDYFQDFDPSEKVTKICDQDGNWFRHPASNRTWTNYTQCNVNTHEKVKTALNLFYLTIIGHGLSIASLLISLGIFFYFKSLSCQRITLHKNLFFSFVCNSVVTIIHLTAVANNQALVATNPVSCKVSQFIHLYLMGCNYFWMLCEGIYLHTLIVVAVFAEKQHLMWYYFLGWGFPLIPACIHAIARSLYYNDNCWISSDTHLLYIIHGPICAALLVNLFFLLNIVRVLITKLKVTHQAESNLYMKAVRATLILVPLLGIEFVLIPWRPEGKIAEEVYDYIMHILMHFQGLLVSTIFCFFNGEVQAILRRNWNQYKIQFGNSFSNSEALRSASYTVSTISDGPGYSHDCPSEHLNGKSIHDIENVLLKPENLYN
T1 sequence (O60894 27-148): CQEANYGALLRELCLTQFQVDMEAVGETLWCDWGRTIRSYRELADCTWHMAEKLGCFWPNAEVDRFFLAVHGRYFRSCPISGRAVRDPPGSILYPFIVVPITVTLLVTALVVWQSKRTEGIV

- IC50: 89 nM
Compound: C[C@@H]1[C@H](c2ccccc2)C[C@H](NC(=O)c2ccc3c(c2)CC2(C3)OC(=O)Nc3ncccc32)C(=O)N1CC(F)(F)F (stereo partly drawn) [Example 1, N-((3S,5S,6R)-6-Methyl-2-oxo-5-phenyl-1-(2,2,2-trifluoroethyl)piperidin-3-yl)-2′-oxo-1,1′,2′,3-tetrahydrospiro[indene-2,4′-pyrido[2,3-d][1,3]oxazine]-5-carboxamide]
